According to US20240199555A1, “APPLICATIONS OF BIASED LIGANDS OF THE SEROTONIN 5-HT7 RECEPTOR FOR THE TREATMENT OF PAIN, MULTIPLE SCLEROSIS AND THE CONTROL OF THERMOREGULATION” (Centre National de la Recherche Scientifique, priority 2021, published 2024):

Columns and labels:
C57BL/6 mice = assay: Spared Nerve Injury (SNI) neuropathic pain model, Von Frey; settings: s.c.
Description: Pregabalin, vehicle or compounds solutions are subcutaneously administrated for 8 consecutive days. • (A) Mechanical response threshold after the first administration (D+10). […] Positive control animals were treated with Pregabalin (5 mg/kg, sc). Statistical differences are indicated compared to vehicle group (Two-way RM ANOVA followed by Bonferroni post-hoc test: ***p<0.001, ** p<0.01, * p<0.05). […] Positive control animals were treated with Pregabalin (5 mg/kg, sc). Statistical differences are indicated compared to vehicle group (Two-way RM ANOVA followed by Bonferroni post-hoc test: ***p<0.001, ** p<0.01, * p<0.05). […] (Two-way RM ANOVA followed by Bonferroni post-hoc test: ***p<0.001, ** p<0.01, * p<0.05)
MOA51 and Serodolin (AIC01) compounds were diluted in NDT solution (NaCl 0.9%—DMSO 20%—Tween80 5%). […] AIC01 was resuspended at 0.5 mg/mL and administrated at a ratio of 100 μl per 10 g (dose of 5 mg/kg).
Experiment starts with 8 weeks old male C57B16J mice (from Charles River). Study was performed on 40 mice (2 mice were excluded during the study due to health guidelines) divided in 4 randomized groups. • Group A: s.c. injection at 5 mg/kg of pregabalin. • Group B: s.c. injection at 0.5 mg/kg of MOA51. • Group C: s.c. injection at 5 mg/kg of Serodolin (AIC01). • Group D: s.c. injection of NDT solution (referred as Vehicle hereafter).
Compounds solutions, pregabalin and vehicle were subcutaneously administrated (100 μl/10 g) for 9 consecutive days, starting 10 days after surgery. Ligature and transection of the common peroneal and tibial distal branches of the sciatic nerve was made leaving the sural branch intact. 7 days post-surgery, a decrease of threshold response to Von Frey filaments of ipsilateral hind-paw was observed corresponding to neuropathic pain apparition (mechanical allodynia). Mechanical threshold response of mice were measured with calibrated Von Frey filaments using the up/down method. Experimenter was blind to mice treatment. Measures are performed as follow: one baseline measure before surgery, one measure at D+10, D+12, D+14, D+16 and D+18 before drug's administration, and 1 h, 2 h post-drug administration. A supplementary measure 4 h post-drug administration was performed at D+10 and D+18.
Two-way RM ANOVA (followed by Bonferroni post-hoc test) was used to analysed time course response at D+10 and D+18. Area under the curve was determined with the 1 h and 2 h post-drug administration measures to investigated tolerance of repeated administration of compounds

human 5-HT1A receptor = human 5-HT1A receptor (Homo sapiens (Human), UniProt P08908); assay: Radioligand binding competition, 5-HT1A; settings: selectivity panel; for IC50: read-out: RLB 5-HT1A IC50; for Ki: read-out: RLB 5-HT1A Ki
Chain of human 5-HT1A receptor (P08908 whole entry): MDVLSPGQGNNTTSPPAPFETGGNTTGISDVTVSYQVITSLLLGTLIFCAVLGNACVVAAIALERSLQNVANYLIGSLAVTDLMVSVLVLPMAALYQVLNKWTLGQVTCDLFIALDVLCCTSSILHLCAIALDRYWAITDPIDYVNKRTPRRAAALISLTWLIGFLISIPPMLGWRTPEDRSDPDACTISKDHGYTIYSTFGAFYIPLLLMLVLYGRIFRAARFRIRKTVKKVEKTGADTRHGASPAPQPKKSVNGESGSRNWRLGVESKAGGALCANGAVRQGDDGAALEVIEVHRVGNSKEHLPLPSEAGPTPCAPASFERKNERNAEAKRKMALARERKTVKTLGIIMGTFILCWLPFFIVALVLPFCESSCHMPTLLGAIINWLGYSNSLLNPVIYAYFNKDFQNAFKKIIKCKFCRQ
Description: (§1) FIG. 14: Testing of 8 molecules for radioligand binding competition activity on recombinant human 5-HT1A, 5-HT2A, 5-HT2Cedited, 5-HT6, 5-HT7 and D2(long) receptors using filtration binding assays.
(§2) Radioligand Binding experiments were conducted with Epics Therapeutics membrane preparations. Receptor accession numbers, cellular background and reference compounds are shown in this table.
(§3) The new compounds have been tested by radioligand binding competition activity at the human 5-HT1A (FAST-0500B), 5-HT2A (FAST-0505B), 5-HT2Cedited (FAST-0507B), 5-HT6 (FAST-0509B), 5-HT7a (FAST-05111B) and D2(long) (FAST-0101B) receptors at seven (7) concentrations, in duplicate. […] Reference values thus obtained for the test were compared to historical values obtained from the same receptor and used to validate the experimental session. For replicate determinations, the maximum variability tolerated in the test was of +/−20% around the average of the replicates.
(§4) Dose-response data from test compounds were analyzed with XLfit (IDBS) software using nonlinear regression applied to a sigmoidal dose-response model and the following equation: • XL Fit fit Model 203: 4 Parameter Logistic Model • A: Bottom • B: TOP • C: LogEC50 • D: Hill

h5-HT7R [1] = biological target: T1, h5-HT7R (Homo sapiens (Human), UniProt P34969); assay: cAMP accumulation (LANCE cAMP detection kit) in HEK-293 cells stably expressing h5-HT7R; type: cell-based; settings: tested alone
T1 sequence (P34969 1-432): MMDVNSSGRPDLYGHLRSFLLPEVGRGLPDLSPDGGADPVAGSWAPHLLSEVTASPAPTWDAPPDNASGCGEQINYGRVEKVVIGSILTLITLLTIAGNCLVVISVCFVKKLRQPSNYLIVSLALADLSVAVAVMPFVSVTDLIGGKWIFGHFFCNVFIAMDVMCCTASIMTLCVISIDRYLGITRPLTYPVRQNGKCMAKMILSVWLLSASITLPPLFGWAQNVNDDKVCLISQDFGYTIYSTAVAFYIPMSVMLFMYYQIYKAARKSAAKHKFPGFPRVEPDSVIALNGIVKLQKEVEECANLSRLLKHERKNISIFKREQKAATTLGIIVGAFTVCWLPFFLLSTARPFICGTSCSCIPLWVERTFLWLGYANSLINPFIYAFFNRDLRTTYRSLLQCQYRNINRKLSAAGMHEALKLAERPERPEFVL
Description: (B) HEK-293 cells stably expressing h5-HT7R were stimulated with 10 nM of 5-CT and increasing concentrations of products for one hour. After cell lysis, cAMP production was quantified by a LANCE cAMP detection kit (Perkin Elmer). […] Data points represent the means±SEM from three independent experiments performed in triplicate. The EC50 and IC50 for each drug was determined using GraphPad Prism software.
cAMP accumulation was measured with a LANCE™ cAMP detection kit (Perkin-Elmer Life Sciences, Boston, MA, USA). 12 h before experiment cells were starved. Forty-eight h after transfection, cells were harvested in Hank's balanced salt solution (HBSS) containing 5 mM HEPES, 1 mM isobutylmethylxanthine (IBMX) and 0.1% BSA, PH 7.4. After centrifugation (1000×g, 5 min), cells were resuspended in the same buffer (2×10^6 per ml). The ALEXA™ fluor 647 anti-cAMP antibody solution (1 μl) was added to the cell suspension (100 μl) and 5 μl aliquots of the mixture were dispensed in white 384-well microtiter plates (Optiplate, Perkin Elmer). The cells were then stimulated with different drugs. After 1 h incubation at room temperature in the dark, lysis buffer (0.35% Triton X-100, 10 mM CaCl2, 50 mM HEPES) containing LANCE EU-W8044 labeled streptavidin and biotinylated-cAMP was added to the cells (10 μL per well). After 2 h incubation at room temperature in the dark, the plates were read on a VictorV™ microplate reader (Perkin-Elmer Life Sciences). Concentration/response curves were analyzed using Prism 4 software.
HEK-293 fibroblast stably expressing 5-HT7 receptor were used to compare the effect of different 5-HT7R ligands on the classical Gαs-mediated activation of AC pathway. It was decided to evaluate the lead compounds from two series of ligands, Serodolin and MOA-51 (FIG. 1A).

[2] = biological target: human 5-HT2Cedited receptor (Homo sapiens, UniProt P28335); assay: Radioligand binding competition, 5-HT2Cedited; settings: selectivity panel; for IC50: read-out: RLB 5-HT2Cedited IC50; for Ki: read-out: RLB 5-HT2Cedited Ki
Chain of human 5-HT2Cedited receptor (P28335 33-458 limits assumed): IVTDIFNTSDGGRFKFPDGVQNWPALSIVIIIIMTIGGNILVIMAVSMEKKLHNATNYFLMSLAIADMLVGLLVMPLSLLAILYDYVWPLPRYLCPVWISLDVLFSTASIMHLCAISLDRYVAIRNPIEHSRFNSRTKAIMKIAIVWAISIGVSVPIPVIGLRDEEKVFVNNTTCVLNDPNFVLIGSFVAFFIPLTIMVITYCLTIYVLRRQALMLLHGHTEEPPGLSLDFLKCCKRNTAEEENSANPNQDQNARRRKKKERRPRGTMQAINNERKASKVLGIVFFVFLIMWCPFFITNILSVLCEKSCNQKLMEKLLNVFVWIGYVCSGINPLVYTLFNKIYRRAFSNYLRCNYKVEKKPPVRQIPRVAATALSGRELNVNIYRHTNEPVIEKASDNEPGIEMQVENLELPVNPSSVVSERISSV
Description: as §1, §2, §3, §4

human 5-HT2A receptor = human 5-HT2A receptor (Homo sapiens (Human), UniProt P28223); assay: Radioligand binding competition, 5-HT2A; settings: selectivity panel; for IC50: read-out: RLB 5-HT2A IC50; for Ki: read-out: RLB 5-HT2A Ki
Chain of human 5-HT2A receptor (P28223 whole entry): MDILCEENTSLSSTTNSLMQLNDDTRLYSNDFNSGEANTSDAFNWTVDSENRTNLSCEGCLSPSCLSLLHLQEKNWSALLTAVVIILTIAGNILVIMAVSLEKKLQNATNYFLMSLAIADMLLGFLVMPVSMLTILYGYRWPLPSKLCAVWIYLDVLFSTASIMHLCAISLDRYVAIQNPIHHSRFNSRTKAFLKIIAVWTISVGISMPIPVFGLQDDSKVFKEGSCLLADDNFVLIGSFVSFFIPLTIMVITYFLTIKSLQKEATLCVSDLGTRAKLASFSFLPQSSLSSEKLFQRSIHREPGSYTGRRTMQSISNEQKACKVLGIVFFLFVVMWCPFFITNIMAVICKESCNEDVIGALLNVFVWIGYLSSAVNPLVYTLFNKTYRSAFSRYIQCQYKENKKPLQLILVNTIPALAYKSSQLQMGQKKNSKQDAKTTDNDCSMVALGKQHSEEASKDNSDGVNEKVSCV
Description: as §1, §2, §3, §4

human 5-HT7a receptor = human 5-HT7a receptor (Homo sapiens (Human), UniProt P34969); assay: Radioligand binding competition, filtration binding assay, 5-HT7a; settings: affinity on 5-HT7 receptor, table of new compounds
Chain of human 5-HT7a receptor (P34969 other isoform, or with tags, fused parts or gaps): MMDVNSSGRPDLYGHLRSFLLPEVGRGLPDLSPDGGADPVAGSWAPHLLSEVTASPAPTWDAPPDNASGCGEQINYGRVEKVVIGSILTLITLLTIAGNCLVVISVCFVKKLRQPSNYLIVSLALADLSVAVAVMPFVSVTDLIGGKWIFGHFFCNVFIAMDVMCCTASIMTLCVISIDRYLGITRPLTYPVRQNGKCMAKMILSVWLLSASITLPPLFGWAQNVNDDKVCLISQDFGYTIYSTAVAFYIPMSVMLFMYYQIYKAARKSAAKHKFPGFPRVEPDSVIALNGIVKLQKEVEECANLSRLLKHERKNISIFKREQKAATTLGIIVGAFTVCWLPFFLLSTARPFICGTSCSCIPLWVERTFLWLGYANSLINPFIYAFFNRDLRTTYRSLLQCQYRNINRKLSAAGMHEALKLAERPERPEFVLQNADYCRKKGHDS
Description: as §1, §2
Reference values thus obtained for the test were compared to historical values obtained from the same receptor and used to validate the experimental session. For replicate determinations, the maximum variability tolerated in the test was of +/−20% around the average of the replicates.
as §4

h5-HT7R [3] = biological target: T1, h5-HT7R; assay: ERK1/2 and c-SRC phosphorylation by western blot in HEK-293 cells stably expressing h5-HT7R; type: cell-based; settings: 10 μM of ligand or increasing concentrations, western blot
Description: (A, B, C, D, E, F) Time course of activation of ERK1/2 after stimulation of HEK-293 cells stably expressing h5-HT7R with various 5-HT7R ligands used at 10 μM. The cells were stimulated for the indicated periods and assayed for detection of phospho ERK1/2 by western blot analysis. […] Representative blots of three independent experiments are illustrated. The histogram on the right of each panel represents the results of densitometric analyses of three independent experiments. Data are means±SEM. * p<0.05; ** p<0.01; *** p<0.001 versus non stimulated cells (NS).
HEK-293 cells stably expressing h5-HT7R were stimulated with increasing concentrations of 5-CT or Serodolin for 7 minutes. Cells were lysed, and western blot analysis was performed. Representative Western blots from three independent experiments were shown in A-C. Quantification was performed by densitometric analyses from three independent experiments. Analyzed data were plotted versus log concentration for each compounds (A; B) or as bar graph (C) on the right panel.
Time course of activation of ERK1/2 after stimulation of HEK-293 cells stably expressing h5-HT7R with JLB060, a 5-HT7R ligand used at 10 μM. The cells were stimulated for the indicated periods and assayed for detection of phospho ERK1/2 by western blot analysis.
(§5) Treated cells were washed twice with cold PBS and lysed on ice for 30 min in lysis buffer containing 50 mM Tris pH 7.5, 150 mM NaCl, 10 mM EDTA, 1% Triton X-100 and the protease inhibitor cocktail. Cell lysates were centrifuged at 10,000×g for 10 min. Supernatant was then solubilized in Laemmli buffer with 0.1% β-mercaptoethanol. Samples were resolved by electrophoresis on 10% SDS-PAGE, and transferred electrophoretically to polyvinylidene fluoride (PVDF) membranes (GE Healthcare Life Sciences). […] membranes were washed in Tris-buffered saline (TBS; pH 7.4) containing 0.1% Tween-20 (TBS-T; 0.1%) and blocked with 5% (w/v) dry milk TBS-T 0.1% for 30 min. […] Blots were probed with anti-arrestin, anti-Phospho-ERK or anti-ERK antibody (1:2000), anti Phospho-SRC, anti SRC antibody, anti-HA or anti-GFP or anti-actin antibodies. Horseradish-peroxidase-conjugated goat anti-rabbit, anti-mouse or anti-rat antibodies (1:33,000) were used as secondary antibodies. Immunoreactive bands were detected using the Dura detection kit. Protein quantification on blots was performed using Quantity One software (Biorad).
as §5, with “12%” for “10%”, “with” for “with anti-arrestin,”, “anti-Phospho-ERK (1:2000)” for “anti-Phospho-ERK”, “anti-GAPDH” for “anti-ERK”, “(1:5000). […]” for “(1:2000), anti Phospho-SRC, anti SRC antibody, anti-HA or anti-GFP or anti-actin antibodies. Horseradish-peroxidase-conjugated goat anti-rabbit, anti-mouse or anti-rat antibodies (1:33,000) were used as secondary antibodies.”
ERK phosphorylation was monitored by western blotting after treatment of cells with 10 μM of ligands at different times ranging from 2 to 60 minutes.

h5-HT7R [4] = biological target: T1, h5-HT7R; assay: AlphaScreen SureFire phospho-ERK and phospho-c-SRC assays; type: cell-based; settings: pretreatment of cells, Serodolin stimulation
Description: FIG. 7: Serodolin induced ERK phosphorylation is dependent on c-SRC activation and requires proline-rich regions on 5-HT7R. […] Cells were lysed, and western blot analysis was performed. (B) The phosphorylation of ERK1/2 as well as phosphorylation of c-SRC were quantified on the same cell lysates using the AlphaScreen assays. Means±SEM of values from three experiments performed in triplicate. (C) The PXXP motif in the C-terminal tail of 5-HT7R has been mutated as described in the upper panel. The corresponding constructs encoding HA-tagged 5-HT7 receptor were transfected in HEK-293 cells as indicated (MutT1, mutT2 and mutT3), then the effect of 5-CT and Serodolin have been evaluated on ERK1/2 and c-SRC activation by Western blot analysis. Representative immunoblots of three independent experiments are illustrated.
The AlphaScreen SureFire phospho-ERK and phosphor-c-SRC assays (PerkinElmer) were used to quantify pERK1/2 and pc-SRC from HEK-293 cell lysates according to the manufacturer's instructions.
(2018) V1b vasopressin receptor trafficking and signaling: Role of arrestins, G proteins and Src kinase. Traffic 19, 58-82; Rey, A., Manen, D., Rizzoli, R., Caverzasio, J., and Ferrari, S. L. (2006) Proline-rich motifs in the parathyroid hormone (PTH)/PTH-related protein receptor C terminus mediate scaffolding of c-Src with beta-arrestin2 for ERK1/2 activation. J Biol Chem 281, 38181-38188). […] To determine whether one of these mechanisms was required for Serodolin-induced ERK phosphorylation, the inventors first evaluated the sensitivity of this activation to the c-SRC-specific tyrosine kinase inhibitor PP2. […]

Row | SMILES | IC50 (human 5-HT1A receptor) [nM] | Ki (human 5-HT1A receptor) [nM] | IC50 [2] [nM] | Ki [2] [nM] | IC50 (human 5-HT2A receptor) [nM] | Ki (human 5-HT2A receptor) [nM] | IC50 (human 5-HT7a receptor) [nM] | Ki (human 5-HT7a receptor) [nM] | induction of ERK phosphorylation (h5-HT7R [3]) | block of Serodolin-induced ERK phosphorylation (h5-HT7R [4]) | further results
1 | CC(C)C[C@H](CN)CC(=O)O [Pregabalin, reference compound] | – | – | – | – | – | – | – | – | – | – | tolerance after repetitive administration (AUC) (C57BL/6 mice; 9 consecutive days): significant decrease of the analgesic effect; mechanical response threshold vs vehicle (C57BL/6 mice; first (D+10) and last (D+18) administration, 1 h and 2 h): significant increase of the mechanical response threshold
2 | O=C(c1ccc(F)cc1)C1CCN(CCCCn2c(=O)[nH]c3ccccc32)CC1 [MOA51] | 885 | 442 | 699 | 115 | 3.29 | 0.54 | 0.29 | 0.2 | – | – | inhibition of cAMP production when tested alone (inverse agonist effect) (h5-HT7R [1]): around 75%
3 | O=c1[nH]c2ccccc2n1CCCCCN1CCCN(c2ccc(F)cc2)CC1 [JLB060] | 850 | 425 | 902 | 148 | 137 | 23 | 0.98 | 0.69 | robustly induce ERK phosphorylation | – | –
4 | Nc1ncnc2c1cnn2-c1ccccc1 [PP3] | – | – | – | – | – | – | – | – | – | inactive | –
5 | O=C1Nc2cccc3c2C1(CCCCN1CC=C(c2ccccc2)CC1)CCC3 (stereo not drawn) [DR4004, reference compound] | – | – | – | – | – | – | – | – | none of them were able to induce ERK activation | – | –
6 | CC(C)(C)n1nc(-c2ccc(Cl)cc2)c2c(N)ncnc21 [PP2] | – | – | – | – | – | – | – | – | – | 99% | block of Serodolin-induced c-SRC phosphorylation (h5-HT7R [4]): 100%
